From patent US12241099B2, “Peptide therapeutics for treating Alzheimer's disease and related conditions” (The Board of Regents of the University of Oklahoma, priority 2018, dated 2025) come the findings set out here.

In assay [1] the test system is mouse neuroblastoma cell line Neuro-2a. Description: Neurotoxicity assay of Aβ1-42 fibrils/oligomers (trypan blue cell death). Type of assay: cell-based. The following applies: oligomers formed 15 min in presence of increasing concentrations; 18 μM Aβ1-42 on cells, 24 hours. The protocol:
A mouse neuroblastoma cell line Neuro-2a from ATCC was used for these experiments. Cells were grown and seeded in 96 well plates at 20,000 cells per well in complete medium (MEM α, nucleosides, no phenol red from Gibco, with 10% heat inactivated fetal bovine serum from Gibco, and penicillin/streptomycin from Lonza). At 24 hours after seeding, cells were washed with warmed MEM α, and then incubated in 90 μl MEM α+N2 Supplements+20 μl test sample (Aβ1-42 prepared as described below). Cells were incubated another 24 hours at 37° C., and then dislodged by pipetting up and down vigorously. 10 μl of cells were added to 10 μl trypan blue dye (0.4% solution) from BioRad, mixed and counted in a BioRad TC20 cell counter. The percent of living and dead cells was recorded for each well. In the case of the water and Triton X100 controls, 20 μl MEM α+N2 Supplements was added instead of the test sample and, just before counting the cells, 20 μl of medium was removed and replaced with 20 μl water or Triton X100 at a final concentration of 0.1%.
Monomeric Aβ1-42 (hexafluoroisopropanol treated Aβ1-42) from Bachem was reconstituted at 5 mM in anhydrous DMSO. Untreated Aβ1-42 from CS Bio was also used in these experiments. It was first treated with 1 mM in hexafluoroisopropanol from Sigma Aldrich, incubated 30 min at room temperature, and left open to dry in the fume hood overnight. It was then vacuum desiccated for 1 hour at room temperature. Dry films of Aβ1-42 were stored at −20° C. until use to keep it under a monomeric form. Aβ1-42 from CS Bio was also reconstituted in anhydrous DMSO at 5 mM before use.
To prepare the fibril and oligomer test samples, monomeric Aβ1-42 was placed under conditions favoring either formation of fibrils or oligomers. To form fibrils, 100 μM Aβ1-42 was added to Anaspec fibrillation buffer A±neutrophil protein, and incubated at 37° C. 24 hours before addition to the cells at a final concentration of 18 μM. Neutrophil proteins were used at Aβ/Protein ratios that led to 50% inhibition of fibrillation (IC50), previously determined for each protein in the fibrillation assay. To form oligomers, MEM α+N2 Supplements was used instead of the fibrillation buffer A±increasing concentrations of neutrophil protein or CAP37-derived peptide. Each mixture was then added to a tube containing freshly prepared Aβ1-42 in DMSO at a final concentration of 100 μM, and incubated 15 min at room temperature. These test samples were then tested on the cells at a final concentration of 18 μM.
Oligomers were formed by incubating 100 μM Aβ1-42 in MEMα+N2 Supplements at 4° C. for 3 days. […] Finally, these oligomers were added to neurons at a final concentration of 18 μM, and percent cell death was measured at 24 h.

Assay [2] addresses T1, Aβ1-42 (Homo sapiens, UniProt P05067). In words: Amyloid Beta (1-42) Thioflavin T fibrillation (aggregation) assay. The format is biochemical. Also noted: used to monitor the formation of Aβ1-42 peptide fibrils; purchased Anaspec. The protocol: The Amyloid Beta (1-42) Thioflavin T Aggregation Kit was purchased from Anaspec and used to monitor the formation of Aβ1-42 peptide fibrils, according to the manufacturer's instructions, with some modifications. Thioflavin T dye was diluted to 250 μM in fibrillation buffer A and kept in the dark until use. […] Neutrophil proteins were tested in the absence and presence of protease inhibitors. […] Chymostatin was dissolved in DMSO and used at 125 μM final concentration in reactions with CG. Reactions were pipetted up and down twice in the wells with a multichannel pipette to ensure mixing, and fluorescence (ΔEX=440 nm, ΔEm=485 nm) was read every 5 minutes for 3 hours on a BioTek Synergy 2 plate reader with Gen 5 software, with a sensitivity set at 65.

In assay [3] the target is T1, Aβ1-42. Description: ELISA binding of Aβ1-42 to plate-coated neutrophil proteins and derived peptides. As to conditions: 150 nM Aβ1-42; plate coated with protein/peptide at 5 μg/ml; no protease inhibitor. The protocol: CAP37, NE, and CG were purified from human neutrophils and purchased from Athens Research and Technology. BSA was from Sigma Aldrich. CAP37-derived peptides were synthesized by CS Bio Co with a purity >95%. Maxisorp plates from Nunc were coated with 100 μl neutrophil protein, peptide, or BSA diluted at 5 μg/ml in PBS with or without 1 mM PMSF purchased from Sigma Aldrich (for experiments with CAP37, NE, and BSA) or ±125 μM chymostatin purchased from Santa Cruz (for experiments with CG and BSA). Plate coating was done at room temperature for 2 hours with shaking and then at 4° C. overnight. Plates were washed three times in PBST (PBS+0.05% tween), then blocked with 3% BSA in PBST for 1 hour at room temperature with shaking. Plates were washed 3× in PBST, and 150 nM Aβ1-42 (purchased from Bachem and reconstituted in 1 mM NaOH) was added in 0.1% BSA in PBST and incubated 70 minutes at 37° C. Plates were then washed 4 times with PBST and monoclonal mouse anti-amyloid precursor protein/amyloid beta antibody, purchased from Cell Signaling Technology was added at a 1:500 dilution in 1% BSA in PBST and incubated for 1 hour at room temperature with shaking. Plates were washed 4× in PBST and donkey anti mouse HRP-conjugated secondary antibody from Jackson ImmunoResearch Laboratories was added at 1:10,000 in PBST and incubated 1 hour at room temperature with shaking, then washed 4 times in PBST. […] Sulfuric acid (5N) was added to each well to stop the reaction, and the absorbance at 492 nm was read on a Biotek Synergy II plate reader.
(In an ELISA, binding on a coated surface is turned into a signal by an enzyme label.)

Assay [4] deals with T1, Aβ1-42. In words: Enzyme activity assay (cleavage of Aβ1-42, MALDI-TOF). The format is biochemical. Details: used to monitor the formation of Aβ1-42 peptide fibrils; purchased Anaspec. The protocol: Aβ1-42 treated with hexafluoroisopropanol was purchased from Bachem and reconstituted in anhydrous DMSO at 5 mM. Reactions were set up with increasing concentrations of enzyme (CAP37, NE or CG) and 10 μM Aβ1-42 substrate in PBS, and incubated at 37° C. for 1 hour. Reactions were stopped by the addition of acetonitrile and trifluoroacetic acid (TFA) to final concentrations of 7.5% and 0.5% respectively. Internal standard (Aβ40-1 from Bachem) dissolved in 10% acetic acid was added to a final concentration of 8 μg/ml. A 10 μl aliquot of this mixture was desalted on a C18 OMIX tip from Agilent Technologies. First, the C18 resin was rinsed with 2×10 μl of 50% methanol, then 2×10 μl of equilibration buffer (5% acetonitrile 0.5% TFA), then the sample was applied to the resin by pipetting 10 times through the resin, which was then washed twice with equilibration buffer and eluted with 75% acetonitrile 0.1% TFA.
Desalted samples were analyzed by Matrix Assisted Laser Desorption/Ionization-Time of Flight mass spectrometry (MARLDI-TOF) using a Bruker Ultraflex II instrument and Flex Control Software. […] Chromatographs were analyzed with Flex Analysis software. […] The ratio of the Aβ1-42 peak intensity divided by the internal standard peak intensity was calculated for each spot, and triplicate spots were averaged to determine the amount of uncleaved Aβ in each enzymatic reaction.

Residues, ends and D or L forms follow the SMILES beside them.

T1 sequence (P05067 672-713 limits assumed): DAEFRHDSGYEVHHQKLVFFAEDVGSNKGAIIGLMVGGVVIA

In the case of `CC(C)C[C@H](NC(=O)[C@H](CCCNC(=N)N)NC(=O)CNC(=O)CNC(=O)[C@H](CO)NC(=O)[C@H](CCCNC(=N)N)NC(=O)[C@H](Cc1c[nH]c2ccccc12)NC(=O)[C@H](CO)NC(=O)CNC(=O)[C@H](Cc1c[nH]c2ccccc12)NC(=O)CNC(=O)[C@H](C)NC(=O)[C@@H](NC(=O)[C@H](CCC(N)=O)NC(=O)[C@H](CS)NC(=O)[C@H](CCCNC(=N)N)NC(=O)[C@@H](NC(=O)CN)[C@@H](C)O)C(C)C)C(=O)N[C@@H](CO)C(=O)N[C@@H](CCCNC(=N)N)C(=O)N[C@@H](Cc1ccccc1)C(=O)N1CCC[C@H]1C(=O)N[C@@H](CCCNC(=N)N)C(=O)N[C@@H](Cc1ccccc1)C(=O)N[C@H](C(=O)N[C@@H](CC(N)=O)C(=O)N[C@H](C(=O)O)C(C)C)C(C)C` [120-146 WR] (H-GTRCQVAGWGSWRSGGRLSRFPRFVNV-OH; N-terminus and C-terminus assumed), in assay [1], the “effect on Aβ1-42 oligomer toxicity” value is recorded as “significantly inhibited”. The IC50 at Aβ1-42 [2] (at time of complete fibrillation of Aβ1-42 control, no protease inhibitor) is ~1000 nM. Besides, on Aβ1-42 [2] (increasing concentrations of peptide, Rfu), the “inhibition of Aβ1-42 fibrillation (in words)” value is recorded as “able to inhibit fibrillation”. At Aβ1-42 [2] (ratio at IC50), the “molar ratio inhibitor/Aβ1-42 corresponding to IC50 of fibrillation” value is 1/10. Moreover, the “binding of Aβ1-42” value at Aβ1-42 [3] is given as “binds”. The “enzymatic activity on Aβ1-42” value at Aβ1-42 [4] is on record as “do not have enzymatic activities”.

What is called IC50 is the concentration that inhibits the measured activity by half.
